# Where two headings read alike, the source gives them in different places.
# Experiments:
# turf grasses = conditions: for Plant Death (%) Grass: 3 days after second spray; for Plant Damage (0 to 9) Grass: 3 days after second spray (re-sprayed after 9 days)
# Description: (§1) The following non-limiting examples serve to further describe the invention. Unless otherwise specified, all of the iron solutions were made using the same molar concentration of iron ion as chelating agent. All of the outside tests were done on areas of mixed grass and dandelions that were at least 2 months old. For the greenhouse tests, dandelions were grown in a commercial greenhouse mix, using supplemental lighting and heating. Each plant was grown in a 2¼ inch pot to a minimum diameter of 20 cm. All of the solutions were sprayed onto the plants at a rate of 100 ml/m^2. The ferrous sulfate formulations that were used in examples 1, 2, 8 and 9 contained 1% iron (180 mM), 18 mM EDTA, 1% citric acid and 0.5% urea. In all of the examples, the amount of iron is identified in brackets as the percent iron on a weight basis.
# (§2) All plant damage was assessed using a qualitative rating scale from 0 to 9.
# (§3) This test investigated the effect of 10% chelation and pH on potted grass and dandelions. All of the solutions contained 10% ferrous sulfate heptahydrate, resulting in a Fe^+2 concentration of 2% (358.1 mM). EDTA and EDDS were added at 1/10th of the iron molar concentration (35.8 mM). MH was added 1%. The dandelions and turf grasses were sow in separate pots 3 weeks prior to the start of the test.
# (§4) The plants were re-sprayed after 9 days.
# dandelions [1] = test: Example 3 FeSO4, EDTA, EDDS and MH combinations on potted dandelions; assay type: in vivo, Taraxacum officinale; conditions: for Plant Death (%) Dandelion: 3 days after second spray; for Plant Damage (0 to 9) Dandelion: 3 days after second spray (re-sprayed after 9 days)
# Description: as §1, §2, §3, §4
# dandelions [2] = test: Example 7 potassium nonanoate with FeHEDTA, greenhouse dandelions; assay type: in vivo, Taraxacum officinale; conditions: for Dead Plants (#/10): 8 + 5 days after spraying
# Description: as §1, §2
# This test compared the damaged caused by combinations of fatty acid and FeHEDTA. FeHEDTA was used at a concentration to 35.8 mM. The treatment with 0.1% Fe contained twice the molar amount of chelating agent as iron. The treatment with 0.2% iron contained the same molar amount of chelating agent as iron Potassium nonanoate (KC9) was used at 0.84%. The plants were re-sprayed 8 days after the first spray.
# grass [3] = test: Example 9 lawn restoration, grass coverage and damage; assay type: in vivo; conditions: after 18 days, sprayed twice
# Description: (§5) Na4EDTA was added to the ferrous sulfate solution at 1.5% (36 mM). The molar level of EDTA is 1/10 that of the iron ions. […] The urea is added as a nitrogen fertilizer source to encourage the growth of the grasses.
# [4] = test system: dandelions (Taraxacum officinale); test: Example 9 lawn restoration, dandelion coverage; assay type: in vivo
# Description: as §5
# grass [5] = test: Example 1 field test of iron chelates, grass damage; assay type: in vivo; conditions: field, sprayed once at 100 ml/m^2, 5 days after spraying
# Description: as §1, §2
# (§6) All of the iron chelates were sprayed once at 0.2% Fe^+3 (35.8 mM), at a volume of 100 ml/m^2 onto 0.5 m^2 areas of mixed grass and dandelions. The spraying of the test was followed by 2 days of rain-free weather. Observations were made 5 days after spraying.
# [6] = test system: daisy plants (Bellis perennis BELPE); test: Example 8 field daisy test of iron solutions; assay type: in vivo; conditions: 0.5 L/m^2, 6 days after spraying
# Description: as §1
# dandelions [7] = test: Example 2 field test of FeEDDS and FeHEDTA at pH 3 and 7, dandelion; assay type: in vivo, Taraxacum officinale; conditions: solution pH 2.6-3.0, 0.1 L/m^2, 4 days after spraying
# Description: as §1, §2
# (§7) The FeEDDS and FeHEDTA solutions contained 0.2% Fe^+3 (35.8 mM). The ferrous sulfate contained 1% Fe^+2 (179.1 mM). The solutions were sprayed at a rate of 0.1 L/m^2 onto 2 plots of 0.5 m^2 of mixed grass and dandelions. Observations were made 4 days after spraying.
# grass [8] = test: Example 2 field test of FeEDDS and FeHEDTA at pH 3 and 7, grass; assay type: in vivo; conditions: solution pH 2.6-3.0; field, 0.1 L/m^2, 4 days after spraying
# Description: as §1, §2, §7
# dandelions [9] = test: Example 1 field test of iron chelates, dandelion damage; assay type: in vivo, Taraxacum officinale; conditions: sprayed once at 100 ml/m^2, 5 days after spraying
# Description: as §1, §2, §6
# dock (Rumex crispus) = test: Example 9 lawn restoration, dock coverage; assay type: in vivo; conditions: after 18 days, sprayed twice
# Description: as §5
structure (smiles),measurement,setting,value
"O=S(=O)([O-])[O-].[Fe+2] [FeSO4, ferrous sulfate]",Plant Death (%) Grass,turf grasses; pH 3,0%
same,Plant Damage (0 to 9) Grass,turf grasses; pH 3,4
same,Plant Death (%) Grass,turf grasses; pH 6,0%
same,Plant Damage (0 to 9) Grass,turf grasses; pH 6,0
same,Plant Death (%) Dandelion,dandelions [1]; pH 3,76%
same,Plant Damage (0 to 9) Dandelion,dandelions [1]; pH 3,8.2 0 to 9
same,Plant Death (%) Dandelion,dandelions [1]; pH 6,17%
same,Plant Damage (0 to 9) Dandelion,dandelions [1]; pH 6,6.0 0 to 9
same,Plant Damage (0 to 9),"dandelions [2]; 8 + 5 days after spraying (re-sprayed after 8 days), listed as FeSO4 (0.2% Fe^+2)",0.2 0 to 9
same,Plant Damage (0 to 9),"dandelions [2]; 8 + 5 days after spraying (re-sprayed after 8 days), listed as FeSO4 (1% Fe^+2)",7.2 0 to 9
same,Plant Damage (0 to 9),"dandelions [2]; 8 + 5 days after spraying (re-sprayed after 8 days), listed as FeSO4 (2% Fe^+2)",8.4 0 to 9
same,Dead Plants (#/10),dandelions [2]; listed as FeSO4 (0.2% Fe^+2),0 #/10
same,Dead Plants (#/10),dandelions [2]; listed as FeSO4 (1% Fe^+2),5 #/10
same,Dead Plants (#/10),dandelions [2]; listed as FeSO4 (2% Fe^+2),8 #/10
same,Plant Damage (0 to 9),"dandelions [2]; 7 days after spraying, listed as FeSO4 (0.2% Fe^+2)",0.8 0 to 9
same,Plant Damage (0 to 9),"dandelions [2]; 7 days after spraying, listed as FeSO4 (1% Fe^+2)",4.4 0 to 9
same,Plant Damage (0 to 9),"dandelions [2]; 7 days after spraying, listed as FeSO4 (2% Fe^+2)",6.2 0 to 9
same,Grass Damage (0 to 9),grass [3],1
same,Plot Area Covered (%) By: Grass,grass [3],20%
same,"effect on dandelion (and dock) in the plots, in words","[4]; Example 9, text",did not appear to reduce the area covered by dandelions
same,Plot Area Covered (%) By: Dandelion,"[4]; after 18 days, sprayed twice",65%
same,Grass Damage (0 to 9),grass [5],7
same,Daisy Mortality (%),[6],6%
same,Dandelion Damage (0 to 9),dandelions [7],7.0 0 to 9
same,Grass Damage (0 to 9),grass [8],7.0 0 to 9
same,Dandelion Damage (0 to 9),dandelions [9],6.3 0 to 9
same,Plot Area Covered (%) By: Dock,dock (Rumex crispus),14%

# Source: patent publication US20100273656A1, “COMPOSITION AND METHOD FOR SELECTIVE HERBICIDE” (priority 2002, published 2010)
